Results taken from ChEMBL document CHEMBL1142596, “Diterpenes from Leucas aspera inhibiting prostaglandin-induced contractions” (J Nat Prod, 2006).
Activity calls are given as the source filed them. The calls are words filed in the database; no cut-off is given here.

Tests used:
[1] = tested on: Radical scavenging activity; experiment: Antioxidant activity assessed as DPPH-radical scavenging activity; format: functional
Ileum [2] = experiment: Inhibition of prostaglandin E1-induced contraction in Hartley guinea pig ileum at 126 umol by modified Magnus assay; format: functional, tissue-based; conditions: Cavia porcellus
Ileum [3] = experiment: Inhibition of prostaglandin E2-induced contraction in Hartley guinea pig ileum at 76 umol by modified Magnus assay; format: functional, tissue-based; conditions: Cavia porcellus
Ileum [4] = experiment: Inhibition of prostaglandin E2-induced contraction in Hartley guinea pig ileum at 48 umol by modified Magnus assay; format: functional, tissue-based; conditions: Cavia porcellus
Ileum [5] = experiment: Inhibition of prostaglandin E1-induced contraction in Hartley guinea pig ileum at 16 umol by modified Magnus assay; format: functional, tissue-based; conditions: Cavia porcellus
Ileum [6] = experiment: Inhibition of prostaglandin E2-induced contraction in Hartley guinea pig ileum at 64 umol by modified Magnus assay; format: functional, tissue-based; conditions: Cavia porcellus
Ileum [7] = experiment: Inhibition of prostaglandin E1-induced contraction in Hartley guinea pig ileum at 39 umol by modified Magnus assay; format: functional, tissue-based; conditions: Cavia porcellus

Compound: O=C(N[C@H](COC(=O)[C@H](Cc1ccccc1)NC(=O)c1ccccc1)Cc1ccccc1)c1ccccc1
- Activity [1]: inactive

Compound: C=CC(C)(O)CC(OC(C)=O)[C@]1(C)C2=C([C@H](OC(C)=O)C[C@@H]1C)[C@@](C)(COC(C)=O)C(=O)CC2 (stereo partly drawn)
- Activity [1]: inactive
- Activity (Ileum [2]): Active
- Activity (Ileum [3]): Active

Compound: C=C[C@]1(C)C=C2C(=O)C[C@H]3C(C)(C)[C@@H](O[C@@H]4O[C@H](CO)[C@@H](O)[C@H](O)[C@H]4O[C@@H]4O[C@H](CO)[C@@H](O)[C@H](O)[C@H]4O)CC[C@]3(C)[C@H]2CC1
- Activity [1]: inactive
- Activity (Ileum [4]): Active
- Activity (Ileum [5]): Active

Compound: C=C[C@]1(C)C=C2C(=O)C[C@H]3C(C)(C)[C@@H](O[C@@H]4O[C@H](CO)[C@@H](O)[C@H](O)[C@H]4O[C@@H]4O[C@H](CO[C@@H]5O[C@H](CO)[C@@H](O)[C@H](O)[C@H]5O)[C@@H](O)[C@H](O)[C@H]4O)CC[C@]3(C)[C@H]2CC1
- Activity [1]: inactive
- Activity (Ileum [2]): Active
- Activity (Ileum [3]): Active

Compound: CC1(C)CC[C@]2(C(=O)O)CC[C@]3(C)C(=CC[C@@H]4[C@@]5(C)C[C@@H](O)[C@H](O)C(C)(C)[C@@H]5CC[C@]43C)[C@@H]2C1
- Activity [1]: inactive
- Activity (Ileum [6]): Active
- Activity (Ileum [7]): Active

Compound: C=C[C@]1(C)C=C2C(=O)C[C@H]3C(C)(C)[C@@H](O[C@@H]4O[C@H](CO[C@@H]5O[C@H](CO)[C@@H](O)[C@H](O)[C@H]5O)[C@@H](O)[C@H](O)[C@H]4O[C@@H]4O[C@@H](C)[C@H](O)[C@@H](O)[C@H]4O)CC[C@]3(C)[C@H]2CC1
- Activity [1]: inactive
- Activity (Ileum [6]): Active
- Activity (Ileum [7]): Active

Compound: C[C@@H]1CC(=O)[C@H]2C(C)(C)[C@@H](O)CC[C@]2(C)[C@@]12CC[C@@]1(CCOC1O)O2 (mixture of isomers)
- Activity [1]: inactive

Compound: C=CC(C)(O)CC(O)[C@]1(C)C2=C([C@H](OC(C)=O)C[C@@H]1C)[C@@](C)(COC(C)=O)C(=O)CC2 (stereo partly drawn)
- Activity [1]: inactive
